Source: patent US20180305334A1, “COMPOUNDS, COMPOSITIONS AND METHODS OF USE AGAINST STRESS GRANULES” (Aquinnah Pharmaceuticals, Inc., priority 2015, published 2018)

System: TDP-43 aggregation in PC12 cells stably expressing TDP-43^Q331K::eGFP
Assay: In vitro efficacy assay, TDP-43 aggregation concentration-response
Format: cell-based
Conditions: PC12 TDP-43^Q331K::eGFP, 1 hour pre-treatment, 15 μM sodium arsenite for 23 hours, 10-point dose response
Description: Exemplary compounds of the invention were evaluated for efficacy in inhibiting TDP-43 inclusions using a concentration-response assay. Briefly, PC12 cells stably expressing a GFP-tagged mutant form of TDP-43 (TDP-43^Q331K::eGFP) were pre-treated for 1 hour with exemplary compounds and stressed with 15 μM sodium arsenite for 23 hours to induce TDP-43 aggregation. The inhibitory effect on TDP-43 aggregation was measured using fluorescence microscopy. The ratio of cells with TDP-43 aggregates was calculated based on the total number of cells with detectable GFP expression.

[1] = Rattus norvegicus, PC-12, inhibition of TDP-43 aggregation
[2] = inhibition of TDP-43 aggregation

SMILES | IC50 [1] [µM] | IC50 [2] [µM]
COc1cccc(CCN2CCCC(CN(Cc3ccccc3)C(=O)c3cc4ccccc4[nH]3)C2)c1 (stereo not shown) [Compound 218] | > 10 | 
CCN(CC1CCN(C(C)(C)Cc2cccc(F)c2OC)CC1)C(=O)c1cc2ccccc2[nH]1 [Compound 364] | < 1.5 | 
CCN(CC1CCCN(Cc2ccc(Cl)cc2)C1)C(=O)c1cc2c(Cl)cc(Cl)cc2[nH]1 (stereo not shown) [Compound 153] | 1.5 to 4 | 
O=C(NCC1CCN(Cc2ccccc2F)CC1)c1cc2ccccc2[nH]1 [compound 272] | > 10 | 
CCN(CC1CCCN(c2ccc(OC)cc2)C1)C(=O)c1cc2ccccc2[nH]1 (stereo not shown) [Compound 227] | 1.5 to 4 | 
COc1cccc(CCNCCNC(=O)c2cc3ccccc3[nH]2)c1 [Compound 221] | 1.5 to 4 | 
COc1cccc(CCN2CCCC(CN(C)C(=O)c3cc4ccccc4[nH]3)C2)c1 (stereo not shown) [Compound 217] | < 1.5 | 
CCN(CC1CCCN(Cc2ccc(Cl)cc2)C1)C(=O)c1cc2c(F)cccc2[nH]1 (stereo not shown) [Compound 165] | 1.5 to 4 | 
COc1cccc(CCN2CCCC(N(C)C(=O)c3cc4ccccc4[nH]3)C2)c1 (stereo not shown) [Compound 222] | > 10 | 
CCN(CC1CCN(C(C)(C)Cc2cccc(F)c2F)CC1)C(=O)c1cc2ccccc2[nH]1 [Compound 342] | > 10 | 
CCN(CC1CCCN(Cc2ccc(Cl)cc2)C1)C(=O)c1cc2ccccc2[nH]1 (stereo not shown) [Compound 138] | < 1.5 | 
CCN(CC1CCCN(CCc2cccc(OC)c2)C1)C(=O)c1ccco1 (stereo not shown) [Compound 247] | 4 to 7 | 
CCN(CC1CCCNC1)C(=O)c1cc2cc(OC)c(OC)cc2[nH]1 (stereo not shown) [compound 415] | > 10 | 
CCN(CC1CCCN(Cc2ccc(OC)cc2)C1)C(=O)c1cc2ccc(Cl)cc2[nH]1 (stereo not shown) [Compound 168] | < 1.5 | 
CCN(CC1CCCN(Cc2cccc(F)c2)C1)C(=O)c1cc2ccccc2[nH]1 (stereo not shown) [Compound 131] | > 10 | 
CCN(CC1CCCN(CCc2cccc(F)c2)C1)C(=O)c1cc2ccccc2[nH]1 (stereo not shown) [Compound 140] | < 1.5 | 
CCN(CC1CCCN(Cc2ccc(F)cc2)C1)C(=O)c1cc2ccccc2[nH]1 (stereo not shown) [Compound 135] | < 1.5 | 
CCN(CC1CCCN(CCc2cccc(OC)c2)C1)C(=O)c1c[nH]c2ccccc12 (stereo not shown) [Compound 232] | < 1.5 | 
CCN(CC1CCCN(CCc2cccc(OC)c2)C1)C(=O)c1ccccc1 (stereo not shown) [Compound 234] | > 10 | 
CCN(CC1CCN(Cc2ccc(OC(F)F)cc2)CC1)C(=O)c1cc2cc(OC(F)F)ccc2[nH]1 [compound 311] | 7 to 9.9 | 
CCN(CC1CCN(C(C)(C)Cc2ccc(Cl)cc2)CC1)C(=O)c1cc2ccccc2[nH]1 [Compound 341] | < 1.5 | 
CCN(CC1CCCN(Cc2ccc(Cl)cc2)C1)C(=O)c1cc2ccc(OC)cc2[nH]1 (stereo not shown) [Compound 159] | 1.5 to 4 | 
CCN(CC1CCCN(CCc2cccc(OC)c2)C1)C(=O)c1cc(C)c[nH]1 (stereo not shown) [Compound 229] | 1.5 to 4 | 
CCN(CC1CCCN(C2CCc3ccccc32)C1)C(=O)c1cc2ccccc2[nH]1 (stereo not shown) [Compound 207] | < 1.5 | 
CCN(CC1CCN(C(C)(C)Cc2ccc(OC)cc2)CC1)C(=O)c1cc2ccccc2[nH]1 [Compound 344] | > 10 | 

SMILES | IC50 [1] [µM] | IC50 [2] [µM]
CCN(CC1CCCN(Cc2ccc(-c3nnn[nH]3)cc2)C1)C(=O)c1cc2ccccc2[nH]1 (stereo not shown) [Compound 225] | > 10 | 
CCN(CC1CCCN(C(C)(C)Cc2cccc(Cl)c2)C1)C(=O)c1cc2ccccc2[nH]1 (stereo not shown) [compound 314] | < 1.5 | 
CCN(CC1CCCN(Cc2ccc(OC)cc2)C1)C(=O)c1cc2c(Cl)cc(Cl)cc2[nH]1 (stereo not shown) [Compound 154] | 1.5 to 4 | 
O=C(NCC1CCN(Cc2cccc(F)c2)CC1)c1cc2ccccc2[nH]1 [compound 270] | > 10 | 
CCN(CC1CCCN(C(C)(C)Cc2cccc(OC(F)F)c2)C1)C(=O)c1cc2cc(OC(F)F)ccc2[nH]1 (stereo not shown) [Compound 336] |  | < 1.5
CCN(CC1CCCN(CCc2cccc(OC)c2)C1)C(=O)c1cc2c([nH]1)CCCC2 (stereo not shown) [Compound 243] | < 1.5 | 
O=C(NCC1CCN(Cc2ccccc2)CC1)c1cc2ccccc2[nH]1 [compound 295] | 4 to 7 | 
CCN(CC1CCCN(CCc2ccc(Cl)cc2)C1)C(=O)c1cc2ccccc2[nH]1 (stereo not shown) [Compound 128] | < 1.5 | 
COc1cccc(CCN2CCCC(CNC(=O)c3cc4ccccc4[nH]3)C2)c1 (stereo not shown) [Compound 125] | < 1.5 | 
COc1ccc(S(=O)(=O)N2CCC(CNC(=O)c3cc4ccccc4[nH]3)CC2)cc1 [Compound 325] | > 10 | 
CCN(CC1CCN(Cc2cccc(OC(F)(F)F)c2)CC1)C(=O)c1cc2cc(OC(F)(F)F)ccc2[nH]1 [compound 308] | > 10 | 
CCN(CC1CCCN(CC(C)(C)c2cccc(OC)c2)C1)C(=O)c1cc2cc(OC)ccc2[nH]1 (stereo not shown) [Compound 406] | < 1.5 | 
CCN(CC1CCN(C2CCc3ccccc32)CC1)C(=O)c1cc2ccccc2[nH]1 (stereo not shown) [Compound 328] | 4 to 7 | 
CCN(CC1CCN(C(C)(C)CC2CCOCC2)CC1)C(=O)c1cc2ccccc2[nH]1 [Compound 365] | 1.5 to 4 | 
CCN(CC1CCCN(CC(C)(C)c2cc3ccccc3o2)C1)C(=O)c1cc2ccccc2[nH]1 (stereo not shown) [Compound 409] | 1.5 to 4 | 
CC(C)N(CC1CCN(Cc2ccccc2)CC1)C(=O)c1cc2ccccc2[nH]1 [compound 285] | 1.5 to 4 | 
CCN(CC1CCCN(Cc2ccc(OC)cc2)C1)C(=O)c1cc2cc(OC)ccc2[nH]1 (stereo not shown) [Compound 149] | < 1.5 | 
CCN(CC1CCCN(C2CCc3ccccc3C2)C1)C(=O)c1cc2ccccc2[nH]1 (stereo not shown) [Compound 208] | 4 to 7 | 
CCN(CC1CCN(C(C)(C)c2cc3ccccc3o2)CC1)C(=O)c1cc2ccccc2[nH]1 [Compound 340] | < 1.5 | 
CCN(CC1CCCN(CCc2ccc(OC)cc2)C1)C(=O)c1cc2ccccc2[nH]1 (stereo not shown) [Compound 127] | < 1.5 | 
COc1ccccc1CN1CCC(CN(C)C(=O)c2cc3ccccc3[nH]2)CC1 [compound 260] | 4 to 7 | 
CCN(CC1CCCN(CCc2cccc(OC)c2)C1)C(=O)c1nc2ccccc2[nH]1 (stereo not shown) [Compound 230] | < 1.5 | 
CCN(CC1CCCN(C(C)(C)Cc2cccc(Cl)c2)C1)C(=O)c1cc2ccccc2[nH]1 (stereo not shown) [Compound 335] |  | < 1.5
CC(C)(Cc1cccc(F)c1)N1CCCC(CN(CC(F)(F)F)C(=O)c2cc3ccccc3[nH]2)C1 (stereo not shown) [Compound 352] | < 1.5 | 
CCN(CC1CCNCC1)C(=O)c1cc2ccccc2[nH]1 [Compound 250] | < 1.5 | 

Second part, the compound after the results:

IC50 [1] [µM] | IC50 [2] [µM] | SMILES
1.5 to 4 |  | CCN(CC1CCN(C(C)(C)Cc2ccc(F)cc2)CC1)C(=O)c1cc2ccccc2[nH]1 [Compound 345]
1.5 to 4 |  | CCN(CC1CCCN(Cc2cccc(C#N)c2)C1)C(=O)c1cc2ccccc2[nH]1 (stereo not shown) [Compound 133]
 | 1.5 to 4 | CCN(CC1CCCN(C(C)(C)Cc2cccc(OC)c2)C1)C(=O)c1cc2ccccc2[nH]1 (stereo not shown) [Compound 331]
1.5 to 4 |  | CCN(CC1CCCN(Cc2ccc(OC)cc2)C1)C(=O)c1cc2ccc(C)cc2[nH]1 (stereo not shown) [Compound 156]
1.5 to 4 |  | CCN(CC1CCCN(Cc2ccc(Cl)cc2)C1)C(=O)c1cc2ccc(Cl)cc2[nH]1 (stereo not shown) [Compound 164]
 | > 10 | CCN(CC1CCCN(C(C)(C)Cc2cccc(OC)c2)C1)C(=O)c1cc2cc(OC)ccc2[nH]1 (stereo not shown) [compound 313]
> 10 |  | CCN(CC1CCCN(CCc2cccc(OC)c2)C1)C(=O)c1cc2cc(OC)ccc2[nH]1 (stereo not shown) [Compound 244]
4 to 7 |  | CCN(CC1CCCNC1)C(=O)c1cc2cc(OCc3ccccc3)ccc2[nH]1 (stereo not shown) [compound 424]
< 1.5 |  | CCN(CC1CCCN(Cc2ccc(Cl)cc2)C1)C(=O)c1cc2cc(OC)ccc2[nH]1 (stereo not shown) [Compound 148]
> 10 |  | CCN(CC1CCCN(Cc2cccc(OC(F)(F)F)c2)C1)C(=O)c1cc2cc(OC(F)(F)F)ccc2[nH]1 (stereo not shown) [Compound 175]
> 10 |  | CCN(CC1CCN(Cc2ccc(F)cc2)CC1)C(=O)c1cc2ccccc2[nH]1 [compound 290]
4 to 7 |  | CCN(CC1CCCN(C2Cc3ccccc3C2)C1)C(=O)c1cc2ccccc2[nH]1 (stereo not shown) [Compound 209]
> 10 |  | CN(CC1CCN(Cc2cccc(Cl)c2)CC1)C(=O)c1cc2ccccc2[nH]1 [compound 256]
< 1.5 |  | CCN(CC1CCN(C(C)(C)Cc2cccc(OC)c2)CC1)C(=O)c1cc2ncccc2[nH]1 [Compound 363]
> 10 |  | CN(CC1CCN(Cc2ccc(F)cc2)CC1)C(=O)c1cc2ccccc2[nH]1 [compound 269]
1.5 to 4 |  | CCN(CC1CCN(Cc2ccccc2F)CC1)C(=O)c1cc2ccccc2[nH]1 [compound 268]
1.5 to 4 |  | CCN(CC1CCCN(CCc2cccc(OC)c2)C1)C(=O)c1cc2ccccc2s1 (stereo not shown) [Compound 235]
4 to 7 |  | CCN(CC1CCCN(CCc2cccc(OC(F)(F)F)c2)C1)C(=O)c1cc2cc(OC(F)(F)F)ccc2[nH]1 (stereo not shown) [Compound 179]
1.5 to 4 |  | CCN(CC1CCCN(Cc2cccc(Cl)c2)C1)C(=O)c1cc2ccccc2[nH]1 (stereo not shown) [Compound 134]
< 1.5 |  | CCN(CC1CCCN(C(C)(C)c2ccc(OC)cc2)C1)C(=O)c1cc2cc(OC)ccc2[nH]1 (stereo not shown) [Compound 356]
> 10 |  | CCN(CC1CCCN(C2CCc3ccc(OC)cc3C2)C1)C(=O)c1cc2ccccc2[nH]1 (stereo not shown) [Compound 210]
< 1.5 |  | COc1cccc(CCN2CCCC(CN(C(=O)c3cc4ccccc4[nH]3)C3CCCCC3)C2)c1 (stereo not shown) [Compound 219]
> 10 |  | CCN(CC1CCCNC1)C(=O)c1cc2ccc(OC)cc2[nH]1 (stereo not shown) [compound 419]
1.5 to 4 |  | CCN(CC1CCCN(C(C)(C)c2cc3ccccc3o2)C1)C(=O)c1cc2ccccc2[nH]1 (stereo not shown) [compound 317]
< 1.5 |  | CC(C)(Cc1cccc(F)c1)N1CCC(CN(CC(F)(F)F)C(=O)c2cc3ccccc3[nH]2)CC1 [Compound 353]
1.5 to 4 |  | CCN(CC1CCCN(Cc2ccc(OC)cc2)C1)C(=O)c1cc2ccccc2[nH]1 (stereo not shown) [Compound 137]
